Source: patent publication US9884876B2, “Anti-viral compounds, pharmaceutical compositions, and methods of use thereof” (Kineta, Inc., priority 2014, dated 2018)

Experiments:
Assay type in all cases: cell-based
[1] = system: Influenza A virus Udorn/72; assay: microbe, parasite or virus in culture; details: for EC50 / IC50: Influenza A virus, MDCK; for EC50: Table 7, read-out: FLU EC50; for IC50: calculated IC50, read-out: IC50 against flu; for inhibition of Influenza A Udorn/72 infection (% untreated negative control): HEK293 cells, increasing concentrations
[2] = system: Dengue virus type 2 (DV2); assay: In vitro activity against Dengue virus type 2 (Huh 7 cells, immunofluorescent staining of viral protein); details: for EC50 / IC50: Dengue virus, Huh-7; for EC50: Table 7, read-out: DNV2 EC50; for IC50: calculated IC50; for inhibition of Dengue virus type 2 infection (% untreated negative control): Huh 7 cells, increasing concentrations; for decrease in infection by Dengue virus type 2: increasing amounts of compound (FIG. 7)
[3] = system: Dengue virus type 4 (DV4); assay: In vitro activity against Dengue virus type 4; details: for EC50: Table 7, read-out: DNV4 EC50; for IC50: calculated IC50
RSV = assay: In vitro activity against respiratory syncytial virus (HeLa cells); details: human respiratory syncytial virus, Table 7
human coronavirus OC43 = assay: In vitro activity against human coronavirus OC43 (MRC5 cells); details: for IC50: Betacoronavirus 1, OC43, MRC5, calculated IC50; for EC50: Betacoronavirus 1, MRC5, read-out: HCOV EC50; for inhibition of human coronavirus OC43 infection (% untreated negative control): increasing concentrations

O=C(Nc1nc2ccc(-c3nc4ccccc4o3)cc2s1)c1ccc2ccccc2c1 [Compound 15]
EC50 [1]: 6.8 µM
IC50 [1]: 6.8 µM
EC50 [2]: 0.4 µM
IC50 [2]: 0.39 µM
EC50 [3]: 4.6 µM
IC50 [3]: > 5 µM
EC50 (RSV): > 3 µM

O=C(Nc1nc2ccc3scnc3c2o1)c1ccc2cc(OCCN3CCOCC3)ccc2c1 [Compound 10]
inhibition of Influenza A Udorn/72 infection (% untreated negative control) [1]: dose-dependent inhibition of virus infection
EC50 [1]: 3.2 µM
IC50 [1]: 3.18 µM
EC50 [2]: 1.4 µM
IC50 [2]: 1.78 µM
inhibition of Dengue virus type 2 infection (% untreated negative control) [2]: dose-dependent inhibition of virus infection
EC50 [3]: 5.6 µM
IC50 [3]: 6.48 µM
EC50 (RSV): 2.9 µM

CCN(CC)c1ccc(C(=O)Nc2nc3ccc4sc(C)nc4c3s2)cc1 [Compound 20]
decrease in infection by Dengue virus type 2 [2]: dose-dependent decrease in infection by virus

O=C(Nc1nc2ccc(C(=O)N3CCCC3)cc2s1)c1ccc2ccccc2c1 [Compound 11]
IC50 [1]: 5.16 µM
EC50 [2]: 0.5 µM
IC50 [2]: 0.53 µM
EC50 [3]: 5.2 µM

CC(C)(C)Oc1ccc2nc(NC(=O)c3ccc4ccccc4c3)sc2c1 [Compound 17]
EC50 [1]: 4.1 µM
EC50 [2]: 0.5 µM
IC50 [2]: 0.5 µM
EC50 [3]: 4.7 µM
IC50 [3]: 4.7 µM

O=C(Nc1nc2ccc(-c3nc4ccccc4[nH]3)cc2s1)c1ccc2ccccc2c1 [Compound 14]
IC50 [2]: 0.15 µM
IC50 [3]: 0.03 µM

COc1ccc(-c2ccc3nc(NC(=O)c4ccc5ccccc5c4)sc3c2)c(OC)c1 [Compound 19]
EC50 [2]: 0.5 µM
EC50 [3]: 0.6 µM
EC50 (RSV): 1.2 µM

O=C(Nc1nc2ccc3scnc3c2o1)c1ccc2ccccc2c1 [Compound 4]
EC50 [1]: 1.3 µM
IC50 [1]: 1.29 µM
EC50 [2]: 3.6 µM
IC50 [2]: 3.65 µM
IC50 (human coronavirus OC43): 0.09 µM
EC50 (RSV): 2.8 µM

O=C(Nc1nc2ccc3scnc3c2s1)c1ccc2cc(OCCN3CCOCC3)ccc2c1 [Compound 5]
EC50 [1]: > 10 µM
IC50 [1]: > 10 µM
EC50 [2]: 0.5 µM
IC50 [2]: 0.47 µM
inhibition of Dengue virus type 2 infection (% untreated negative control) [2]: dose-dependent inhibition of virus infection
decrease in infection by Dengue virus type 2 [2]: dose-dependent decrease in infection by virus
EC50 [3]: 5 µM
IC50 [3]: 4.9 µM
EC50 (human coronavirus OC43): 0.04 µM
IC50 (human coronavirus OC43): 0.04 µM
inhibition of human coronavirus OC43 infection (% untreated negative control) (human coronavirus OC43): dose-dependent inhibition of virus infection

Cc1nc(-c2ccc3nc(NC(=O)c4ccc5ccccc5c4)sc3c2)cs1 [Compound 21]
IC50 [2]: 0.1 µM
IC50 [3]: 0.27 µM

Cc1nc2c(ccc3nc(NC(=O)c4ccc(S(=O)(=O)N5CC(C)OC(C)C5)cc4)oc32)s1 (stereo not drawn) [Compound 9]
inhibition of Influenza A Udorn/72 infection (% untreated negative control) [1]: dose-dependent inhibition of virus infection
EC50 [1]: 1.1 µM
IC50 [1]: 1.15 µM
EC50 [2]: 1.8 µM
IC50 [2]: 1.78 µM
inhibition of Dengue virus type 2 infection (% untreated negative control) [2]: dose-dependent inhibition of virus infection
EC50 [3]: 0.9 µM
EC50 (RSV): 1.8 µM

O=C(Nc1nc2ccc(NC(=O)c3ccco3)cc2s1)c1ccc2ccccc2c1 [Compound 13]
EC50 [1]: 5.3 µM
IC50 [1]: 2 µM
EC50 [2]: 2 µM
EC50 [3]: 5.5 µM
EC50 (RSV): 14 µM

O=C(Nc1nc2ccc3scnc3c2o1)c1cccc(Br)c1 [Compound 6]
EC50 [1]: 1.1 µM
IC50 [1]: 1.49 µM
EC50 [2]: 2.5 µM
IC50 [2]: 2.03 µM
inhibition of Dengue virus type 2 infection (% untreated negative control) [2]: dose-dependent inhibition of virus infection
EC50 [3]: 2.8 µM
IC50 [3]: 0.02 µM
EC50 (human coronavirus OC43): 0.04 µM
IC50 (human coronavirus OC43): 0.04 µM
inhibition of human coronavirus OC43 infection (% untreated negative control) (human coronavirus OC43): dose-dependent inhibition of virus infection
EC50 (RSV): 1.7 µM

O=C(Nc1nc2cccc(C(F)(F)F)c2s1)c1ccc2ccccc2c1 [Compound 16]
IC50 [2]: > 5 µM

Cc1nc2c(ccc3nc(NC(=O)c4cccc(Cl)c4)oc32)s1 [Compound 8]
EC50 [2]: 1.2 µM
IC50 [2]: 1.23 µM
inhibition of Dengue virus type 2 infection (% untreated negative control) [2]: dose-dependent inhibition of virus infection
